Measurements reported in patent US20230174486A1, “NON-LYSOSOMAL GLUCOSYLCERAMIDASE INHIBITORS AND USES THEREOF” (ALECTOS THERAPEUTICS lNC., priority 2020, published 2023).

Key:
[1] = molecular target: T1, human GBA2 (Homo sapiens, UniProt Q9HCG7); assay: Inhibition of GBA2 in cell lysate (4-methylumbelliferone-β-D glucopyranoside substrate); format: biochemical; details: homogenate of HEK293T cells stably overexpressing human GBA2, pH 5.5, 37° C., GCase inhibitor present
T1 construct: cellular homogenate
T1 sequence (Q9HCG7 1-927): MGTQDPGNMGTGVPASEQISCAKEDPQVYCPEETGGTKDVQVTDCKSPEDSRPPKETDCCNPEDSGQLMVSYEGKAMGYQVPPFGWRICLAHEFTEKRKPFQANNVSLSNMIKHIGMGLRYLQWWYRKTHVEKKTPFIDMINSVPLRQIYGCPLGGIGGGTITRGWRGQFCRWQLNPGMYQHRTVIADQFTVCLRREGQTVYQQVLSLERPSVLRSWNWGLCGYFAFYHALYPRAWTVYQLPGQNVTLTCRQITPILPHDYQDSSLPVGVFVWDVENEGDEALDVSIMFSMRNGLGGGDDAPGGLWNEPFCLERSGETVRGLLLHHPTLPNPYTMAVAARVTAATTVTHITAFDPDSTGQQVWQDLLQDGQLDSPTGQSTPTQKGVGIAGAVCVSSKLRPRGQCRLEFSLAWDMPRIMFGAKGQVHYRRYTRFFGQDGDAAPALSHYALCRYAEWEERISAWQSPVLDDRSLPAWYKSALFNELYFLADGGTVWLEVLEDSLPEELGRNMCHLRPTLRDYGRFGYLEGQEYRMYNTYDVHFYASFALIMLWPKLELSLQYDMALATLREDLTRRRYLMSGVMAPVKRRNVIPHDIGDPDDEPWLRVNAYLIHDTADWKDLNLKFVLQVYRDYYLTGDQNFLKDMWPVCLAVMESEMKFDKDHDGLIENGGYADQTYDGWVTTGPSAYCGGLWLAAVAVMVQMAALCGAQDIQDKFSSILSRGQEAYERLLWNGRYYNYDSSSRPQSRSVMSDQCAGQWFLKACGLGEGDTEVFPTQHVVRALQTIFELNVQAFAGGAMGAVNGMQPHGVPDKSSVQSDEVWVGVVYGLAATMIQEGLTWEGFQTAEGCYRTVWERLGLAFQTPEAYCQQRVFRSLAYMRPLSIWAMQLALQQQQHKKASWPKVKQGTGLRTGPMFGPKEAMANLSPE
Protocol: Stable GBA2-expressing HEK293T cells were generated as follows. The PCR-amplified human GBA2 (GBA2 nucleotide accession number BC011363) using the following primers: Sense 5’---CGCAAATGGGCGGTAGGCGTG---3’ and antisense 5’---TAGTCAGCCATGGGGCGGAGA ---3’) was cloned into pLenti-GIII-CMV by ABM Inc. The correctness of the construct was verified by sequencing. Lentivirus particles containing GBA2 in the pLenti-GIII-CMV plasmid were prepared using a third Generation Virus Packaging Mix (ABM cat# LV053-G074) in HEK293T cells and supplied as a virus particle suspension. The virus suspension was used for infection of HEK293T cells. Cell populations stably expressing human GBA2 were selected using puromycin for several weeks as determined by activity assays and western blot.
Various concentrations of test compounds were prepared in DMSO and then diluted into buffer consisting of 100 mM citric acid, 200 mM disodium phosphate with 1% v/v C10E6, pH 5.5. Cellular homogenates (0.25 mg/mL) of the stable HEK293T-overexpressing GBA2 cell line were preincubated for 10 min on ice with an inhibitor of GCase (20 µM (6R,7R,8S)-8-ethyl-4-azaspiro[2.5]octane-6,7-diol). The reaction solution consisted of 20 µL of 750 µM 4-methylumbelliferone-β-D glucopyranoside in 5% DMSO in the same buffer, 20 µL of GBA2-cellular homogenate pre-treated with (6R,7R,8S)-8-ethyl-4-azaspiro[2.5]octane-6,7-diol and 20 µL of various concentrations of test compound in 10% DMSO in the same buffer. The final concentrations in the reaction were 0.083 mg/mL GBA2-cellular homogenate, 250 µM 4-methylumbelliferone-β-D glucopyranoside, and various concentrations of inhibitor. The inhibitor and GBA2-cellular homogenate were preincubated together for 5 min at 37° C. The reaction was initiated by addition of substrate and allowed to proceed for 20 min at 37° C. to assess GBA2 activity. Reactions were stopped by the addition of an equal volume (60 µL) of 0.5 M NaOH, 0.3 M glycine, pH 10.5. Fluorescence was measured on a Biotek Synergy H4 plate reader at wavelengths of 365 nm for excitation and 450 nm for emission. Incubations without added enzyme or added inhibitors were used to define no enzyme activity and maximal enzyme activity, respectively. IC50 values were determined by fitting the data to a log[inhibitor concentration] versus response curve using GraphPad Prism. IC50 values were calculated as the concentration of inhibitor required to inhibit GBA2 activity by 50%.

[2] = molecular target: T2, human non-lysosomal glucosylceramidase (GBA2) (Homo sapiens, UniProt Q9HCG7); assay: Binding specificity for GBA2 over other molecules (ratio of Ki or IC50 values); format: biochemical; details: qualitative statement, no values or other enzyme given
T2 sequence (Q9HCG7 1-927): T1 sequence (Q9HCG7 1-927)
From the text: In some embodiments, one or more of the compounds according to the invention may specifically bind a GBA2. In alternative embodiments, one or more of the compounds according to the invention may specifically bind the active site of a GBA2. […] In alternative embodiments, one or more of the compounds according to the invention may specifically bind the human non-lysosomal glucosylceramidase (GBA2) over the human lysosomal glucosylceramidase (GCase) and/or the human cytosolic glucosylceramidase (GBA3). In alternative embodiments, one or more of the compounds according to the invention may specifically bind the human non-lysosomal glucosylceramidase (GBA2) over the human glucosylceramide synthase (GCS). In alternative embodiments, one or more of the compounds according to the invention may specifically bind the human non-lysosomal glucosylceramidase (GBA2) over an intestinal alpha-glucosidase, where the intestinal alpha-glucosidase may be a sucrase-isomaltase or a maltase-glucoamylase.

SMILES	GBA2 IC50 [1]	binding specificity, Ki(other molecule)/Ki(GBA2) or IC50(other molecule)/IC50(GBA2) [2]
OC[C@@H]1[C@@H](O)[C@H](O)[C@@H](O)CN1CCc1ccccc1F [Example 1, (2R,3R,4R,5S)-1-(2-fluorophenethyl)-2-(hydroxymethyl)piperidine-3,4,5-triol]	∗∗∗	–
OC[C@@H]1[C@@H](O)[C@H](O)[C@@H](O)CN1CCc1ccccn1 [Example 9, (2R,3R,4R,5S)-2-(hydroxymethyl)-1-(2-(pyridin-2-yl)ethyl)piperidine-3,4,5-triol]	∗∗	–
C[C@@H](CN1C[C@H](O)[C@@H](O)[C@H](O)[C@H]1CO)c1ccccc1 (single isomer, unassigned) [Example 7]	∗∗∗	–
CC(C)(F)[C@H]1CC[C@@H](CN2C[C@H](O)[C@@H](O)[C@H](O)[C@@H]2CO)CC1 [Example 14, (2S,3R,4R,5S)-1-(((1s,4S)-4-(2-fluoropropan-2-yl)cyclohexyl)methyl)-2-(hydroxymethyl)piperidine-3,4,5-triol]	∗∗∗	enhanced binding specificity
OC[C@@H]1[C@@H](O)[C@H](O)[C@@H](O)CN1CCc1ccc(C(F)(F)F)cc1 [Example 6, (2R,3R,4R,5S)-2-(hydroxymethyl)-1-(4-(trifluoromethyl)phenethyl)piperidine-3,4,5-triol]	∗∗∗	–
OC[C@H]1[C@@H](O)[C@H](O)[C@@H](O)CN1CCc1ccccc1F [Example 18, (2S,3R,4R,5S)-1-(2-fluorophenethyl)-2-(hydroxymethyl)piperidine-3,4,5-triol]	∗∗∗	–
OC[C@H]1[C@@H](O)[C@H](O)[C@@H](O)CN1C[C@H]1CCCN(c2nc(C(F)(F)F)cs2)C1 [Example 30, (2S,3R,4R,5S)-2-(hydroxymethyl)-1—(((R)—1-(4-(trifluoromethyl)thiazol-2-yl)piperidin-3-yl)methyl)piperidine-3,4,5-triol]	∗∗∗	–
OC[C@H]1[C@@H](O)[C@H](O)[C@@H](O)CN1CCc1ccc(-c2ccccc2)cc1 [Example 20, (2S,3R,4R,5S)-1-(2-([1,1′-biphenyl]-4-yl)ethyl)-2-(hydroxymethyl)piperidine-3,4,5-triol]	∗∗∗	enhanced binding specificity
OC[C@@H]1[C@@H](O)[C@H](O)[C@@H](O)CN1CCc1cccc(F)c1 [Example 2, (2R,3R,4R,5S)-1-(3-fluorophenethyl)-2-(hydroxymethyl)piperidine-3,4,5-triol]	∗∗∗	–
OC[C@@H]1[C@@H](O)[C@H](O)[C@@H](O)CN1CCc1cccc(C(F)(F)F)c1 [Example 5, (2R,3R,4R,5S)-2-(hydroxymethyl)-1-(3-(trifluoromethyl)phenethyl)piperidine-3,4,5-triol]	∗∗∗	–
CC(F)(F)[C@H]1CC[C@H](CN2C[C@H](O)[C@@H](O)[C@H](O)[C@@H]2CO)CC1 [Example 314, (2S,3R,4R,5S)-1-(((1r,4S)-4-(1,1-difluoroethyl)cyclohexyl)methyl)-2-(hydroxymethyl)piperidine-3,4,5-triol]	∗∗∗	enhanced binding specificity
OC[C@@H]1[C@@H](O)[C@H](O)[C@@H](O)CN1CCc1ccc(F)cc1 [Example 3, (2R,3R,4R,5S)-1-(4-fluorophenethyl)-2-(hydroxymethyl)piperidine-3,4,5-triol]	∗∗∗	–
OC[C@@H]1[C@@H](O)[C@H](O)[C@@H](O)CN1CCc1cccs1 [Example 10, (2R,3R,4R,5S)-2-(hydroxymethyl)-1-(2-(thiophen-2-yl)ethyl)piperidine-3,4,5-triol]	∗∗∗	–
OC[C@@H]1[C@@H](O)[C@H](O)[C@@H](O)CN1CCc1ccsc1 [Example 11, (2R,3R,4R,5S)-2-(hydroxymethyl)-1-(2-(thiophen-3-yl)ethyl)piperidine-3,4,5-triol]	∗∗∗	–
OC[C@H]1[C@@H](O)[C@H](O)[C@@H](O)CN1CCCC1CCCCC1 [Example 17, (2S,3R,4R,5S)-1-(3-cyclohexylpropyl)-2-(hydroxymethyl)piperidine-3,4,5-triol]	∗∗∗	–

The next lines start with the values.

GBA2 IC50 [1]	binding specificity, Ki(other molecule)/Ki(GBA2) or IC50(other molecule)/IC50(GBA2) [2]	SMILES
∗∗∗	enhanced binding specificity	C[C@H](CN1C[C@H](O)[C@@H](O)[C@H](O)[C@H]1CO)c1ccccc1 (single isomer, unassigned) [Example 8]
∗∗∗	enhanced binding specificity	OC[C@H]1[C@@H](O)[C@H](O)[C@@H](O)CN1CC1CCCCC1 [Example 12, (2S,3R,4R,5S)-1-(cyclohexylmethyl)-2-(hydroxymethyl)piperidine-3,4,5-triol]
∗∗∗	enhanced binding specificity	OC[C@H]1[C@@H](O)[C@H](O)[C@@H](O)CN1C[C@@H]1CCCN(c2nc(C(F)(F)F)cs2)C1 [Example 32, (2S,3R,4R,5S)-2-(hydroxymethyl)-1—(((S)—1-(4-(trifluoromethyl)thiazol-2-yl)piperidin-3-yl)methyl)piperidine-3,4,5-triol]
∗∗∗	enhanced binding specificity	OC[C@H]1[C@@H](O)[C@H](O)[C@@H](O)CN1C[C@H]1CCN(c2ncccc2C(F)(F)F)C1 [Example 25, (2S,3R,4R,5S)-2-(hydroxymethyl)-1—(((R)—1-(3-(trifluoromethyl)pyridin-2-yl)pyrrolidin-3-yl)methyl)piperidine-3,4,5-triol]
∗∗∗	–	OC[C@H]1[C@@H](O)[C@H](O)[C@@H](O)CN1C[C@H]1CCN(c2nc(C(F)(F)F)cs2)C1 [Example 26, (2S,3R,4R,5S)-2-(hydroxymethyl)-1—(((R)—1-(4-(trifluoromethyl)thiazol-2-yl)pyrrolidin-3-yl)methyl)piperidine-3,4,5-triol]
∗∗∗	–	OC[C@H]1[C@@H](O)[C@H](O)[C@@H](O)CN1CCc1cccc(Cl)c1F [Example 19, (2S,3R,4R,5S)-1-(3-chloro-2-fluorophenethyl)-2-(hydroxymethyl)piperidine-3,4,5-triol]
